Reference: patent publication US10946057B2, “Antiseptics” (INSIGHT HEALTH LIMITED, priority 2007, dated 2021)
In brackets after ≈: the same amount, converted by molar mass. Read-outs that look alike come from different tables or passages of the source.

Columns and labels:
[1] = Skin permeation study CHG + eucalyptus oil, Franz diffusion cells, receptor fluid by HPLC; format: in vitro ADME; details: 24 hour skin permeation, full thickness human skin, Franz cell
Protocol: Prior to the study full ethical committee approval and written consent from patients donating the tissue was obtained. […] Vertical diffusion cells (Franz diffusion cells), with an average diffusion surface area of 1.65 cm^2, were used for skin permeation studies. Phosphate buffered saline (PBS) was used as a receptor fluid, and left overnight in a receptor compartment (approximately volume 29 mls) with circulating water jacket set at 37° C. On the day of investigation the excised skin was thawed in PBS and cut into size to fit Franz diffusion cells (2.9 cm circle across). The skin samples were mounted into Franz diffusion cells and left for 1 hour in the diffusion cells to equilibrate with the receptor fluid prior to commencing the study. […] One millilitre of CHG solution of CHG/eucalyptus oil suspension was aliquoted in triplicate on the surface of the excised human skin on the donor compartment in Franz diffusion cells. The temperature was maintained constant by a circulating water jacket set at 37° C. and the receptor fluid was agitated continuously by magnetic stirrer bar. […] The samples were filtered and analysed by HPLC. Chlorhexidine digluconate was analysed quantitatively by HPLC. […] The samples were filtered and analysed with HPLC (Agilent 1100) with ODS-2 Hypersil column (5μ particle size) (Thermo Electron Corporation, UK) with a flow rate of 1.2 mls/min, detector wavelength 254 nm.

[2] = Skin permeation of CHG with EO and IPA, Franz diffusion cells, receptor compartment by HPLC; details: 24 h permeation study, skin from two donors; LOD 0.0157 μg/mL
Protocol: The full thickness human skin was frozen on the day of excision and stored at −70° C. until required.
Skin permeation studies were performed with vertical Franz diffusion cells. The receptor compartment was filled with 29 mL of PBS and maintained at 37° C. by a circulating water jacket and agitated by stirring with a magnetic bar. Skin samples were thawed in PBS at room temperature, dried with an absorbent towel and mounted onto Franz diffusion cells with the stratum corneum (SC) uppermost facing the donor compartment. The surface area exposed to the test compound was 3.14 cm2 (2 cm in diameter). All entrapped air was removed between the skin and receptor fluid and the skin was left to equilibrate for 30 min to reach the skin surface temperature of 32° C.
Twenty percent (w/v) aqueous CHG was diluted with distilled water, IPA and EO to obtain the final concentrations of 2% (w/v) CHG in 70% (v/v) IPA and 2% (w/v) CHG with 5%, 10%, 20% and 50% (v/v) EO. Tween 80 [0.1% (v/v)] was added to the test solutions to enhance EO solubility in the vehicle. One millilitre of test solution was spread over the skin surface in the donor compartment and the compartment was sealed with a moisture resistant film to prevent evaporation. […] All samples were filtered through a 0.45 μm nylon filter (Kinesis, UK) and analysed by HPLC. […]

[3] = test system: S. epidermidis RP62A biofilm; experiment: Antimicrobial activity against S. epidermidis biofilm by ATP bioluminescence; format: cell-based, Staphylococcus epidermidis; details: for MBC/biofilm eradicating concentration / Minimum inhibitory concentration (MIC), bacteria growing in biofilm: S. epidermidis RP62A biofilm
Protocol: S. epidermidis RP62A was used for its ability to produce a biofilm (Sadovskaya, et al., 2005). Bacteria were stored on beads (MicroBank, Pro-Lab Diagnostics, Cheshire, UK) at −70° C. until required. The ability of the strain to produce slime was confirmed by culturing the bacteria on Congo Red agar (Freeman, et al., 1989). For producing the microbial biofilms, the strains were first inoculated onto Muller-Hinton agar (MHA) (Oxoid, Basingstoke, UK) and incubated in air at 37° C. for 18-20 hours. Ten colonies from the culture plate were suspended into sterile phosphate buffered saline (PBS, Sigma, Dorset, UK). The bacterial concentration was adjusted to 1×10*8 cfu/mL by diluting the culture with sterile PBS and measuring the OD at 570 nm (calibration curve for S. epidermidis cfu against OD at 570 nm were performed prior to the study, data not shown). The suspension was further diluted with Muller-Hinton broth (MHB) supplemented with 2% (w/v) glucose (Fisher Scientific, Leicester, UK) to obtain inocula containing 1×10*5 cfu/mL. Two hundred μL of the bacterial suspension were aliquoted into wells of white walled, clear bottom, tissue culture treated 96-well microtitre plate (Corning Incorporated, NY, USA). The wells in the last column of the plate served as a control, and contained 200 μL of MHB supplemented with 2% (w/v) glucose only. Microtitre plates were incubated in air at 37° C. for 48 hours.
(§1) Aqueous chlorhexidine digluconate (CHG), tea tree oil (TTO), eucalyptus oil (EO) and thymol (all from Sigma-Aldrich) were diluted with MHB to obtain stock solution of 512 mg/mL for essential oils and 512 μg/mL for CHG. Five percent (v/v) dimethylsulphoxide (DMSO) (Sigma-Aldrich) was added to the stocks of essential oils to enhance their solubility of the oils in suspension.
Prior to antimicrobial susceptibility studies, a standard curve for relative light units (RLU) versus bacterial cfu/mL was performed. S. epidermidis was grown with MHB supplemented with 2% (w/v) glucose in a 96-well microtitre plate as described previously to obtain bacterial biofilms. The wells of the microtitre plate with established bacterial biofilms were washed three times with sterile PBS and biofilms were removed from the wells by using “a scrape and wash method” (Adams, 2006). In brief, each well was filled with 200 μL of sterile PBS and, with a sterile pipette tip, the wall of each well was scraped approximately 10 times and the bottom scraped horizontally, vertically and cross-wise in each direction 10 times. The suspension was removed and collected into a sterile Eppendorf tube and the procedure repeated a further 4 times to obtain a final volume of 1000 μL per tube. The procedure was performed on three wells separately. The suspensions were mixed by vortexing and serial dilutions were performed in sterile PBS. 100 μL of the neat suspension and 10^−1 to 10^−5 dilutions were aliquoted onto wells of a white-walled, clear bottom microtitre plate. 100 microlitres of bactolyse were added into each well. The plate was then floated on a water bath sonicator and the plate was sonicated at 50 Hz for 30 minutes to lyse the cells and release the bacterial ATP. Twenty μL of luciferase where added into each well and luminescence read by a luminometer. The bacterial cfu in each suspension and dilution were established by the drop count method. The results were expressed as cfu against RLU.
Microtitre plates containing S. epidermidis RP62A biofilm were washed once with sterile PBS to remove any unbound bacteria. Antimicrobial agents were diluted with MHB to obtain CHG concentrations of 128 μg/mL to 0.25 μg/mL and essential oil concentrations of 256 mg/mL to 0.5 mg/mL. Two hundred and fifty microlitres of the antimicrobial compound were added in the wells in triplicate. Columns 11 and 12 served as controls with biofilm with saline alone and clear wells with MHB alone without bacterial biofilm.

[4] = test system: S. epidermidis RP62A (planktonic cells, suspension); experiment: MIC/MBC by microbroth dilution assay, S. epidermidis in suspension; format: cell-based; details: Staphylococcus epidermidis, read-out: Minimum inhibitory concentration (MIC), planktonic cells
Protocol: Test inocula for the suspension assay were prepared by suspending 10 colonies of S. epidermidis RP62A from an overnight culture on MHA into sterile PBS. The bacterial concentration was adjusted to 1×10*8 cfu/mL by diluting the culture with sterile PBS and measuring the OD at 570 nm (calibration curve for S. epidermidis cfu against OD at 570 nm were performed prior to the study, data not shown). The suspension was further diluted with MHB to obtain inocula containing 1×10*7 cfu/mL for synergy assays or 1×10*6 cfu/ml for testing antimicrobial activity of CHG and oils alone in suspension.
as §1
Minimum inhibitory concentration (MIC) and minimum bacterial concentration (MBC) of aqueous CHG, TTO, EO and thymol were performed by microbroth dilution assay (NCCLS, 1997). […] Minimum bactericidal concentrations were determined by removing the suspension from the clear wells into MHA, spread with a sterile spreader and incubating the plates in air at 37° C. for 18-20 hours. […]

[5] = CHG penetration profile studies with EO and IPA (CHG extracted from skin sections); format: in vitro ADME, human
Protocol: Following exposure, the skin samples were removed, washed with PBS and dried with an absorbent towel. The skin samples were immediately sprayed with a cryospray (Bright Instruments) and frozen at -20° C. Punch biopsies (7 mm in diameter) were cut from each frozen sample in triplicate and placed onto a cork disc in embedding compound (Bright Instruments, Cambs, UK), The frozen samples were sectioned horizontally with a microtome (Bright Instruments) into 20 μm sections (from the surface to a depth of 600 μm) and 30 μm sections (from depths of 600 to 1500 μm). Each section was placed into an Eppendorf tube and the total weight of each skin sample determined. Chlorhexidine was extracted from the skin by aliquoting 1 mL of mobile phase solution (75% methanol, 25% distilled water, 0.1% sodium heptane sulphonate, 0.1% diethylamine, pH 4) into skin samples and incubated in water bath at 60° C. for 1 h. The samples were mixed by vortexing and filtered prior to analysis by HPLC. The results were calculated as μg of CHG per mg of skin. Control skin (skin without treatment) was analysed parallel to the test samples. The assay was performed in triplicate. The data obtained were analysed by a student t-test using […] software (Graph pad software version 3.06) with a p<0.05 level of significance.

| SMILES | Levels of CHG in the receptor fluid [1] | Chlorhexidine in the receptor compartment [2] | MBC/biofilm eradicating concentration [3] | Minimum inhibitory concentration (MIC), bacteria growing in biofilm ([3]; agent alone) | MIC higher against bacteria growing in biofilm compared to planktonic cells ([3]; biofilm vs planktonic) | MIC ([4]; agent alone) | Mean concentration of CHG (and SEM) within the tissues ([5]; 2 min exposure, 300 to 1500 μm depths) | Mean CHG concentration (and SEM) ([5]; 30 min exposure, depths of 300 μm to 1500 μm) | CHG concentration extracted from the deeper layers of the skin ([5]; 24 h exposure, 300 to 1500 μm depths) | CHG concentration extracted from the top 100 μm layer ([5]; 24 h exposure, top 100 μm) | Minimum inhibitory concentration (MIC), bacteria growing in biofilm ([3]; oil alone) | MIC lower against biofilms compared to planktonic cells ([3]; biofilm vs planktonic) | MIC ([4]; oil alone) |
| --- | --- | --- | --- | --- | --- | --- | --- | --- | --- | --- | --- | --- | --- |
| [H]/N=C(\N/C(=N/[H])NCCCCCCNC(=N)NC(=N)Nc1ccc(Cl)cc1)Nc1ccc(Cl)cc1 [CHG, chlorhexidine digluconate] | did not show detectable levels | not detected | 32 µg/mL | 8 µg/mL | 2 fold | 2 µg/mL | 0.0048 μg/mg tissue | 0.0021 (±0.0004) μg/mg tissue | 0.581 (±0.0466) μg per mg tissue | 7.880 μg per mg tissue | – | – | – |
| Cc1ccc(C(C)C)c(O)c1 [Thymol, thymol] | – | – | 2000 µg/mL (≈ 13.3 mM) | – | – | – | – | – | – | – | 1000 µg/mL (≈ 6.66 mM) | 2 fold | 4000 µg/mL (≈ 26.6 mM) |
